Results taken from ChEMBL document CHEMBL1909046, “DrugMatrix in vitro pharmacology data”.

What was measured:
[1] = biological target: C-C chemokine receptor type 2 (Homo sapiens, UniProt P41597); assay type: cell membranes, CHO-K1, Membrane; further: in other assays of this panel Not Active means under 50% inhibition at 10 µM
[2] = biological target: T1, Alpha-2C adrenergic receptor (Homo sapiens, UniProt P18825); assay: DRUGMATRIX: Adrenergic Alpha-2C radioligand binding (ligand: [3H] MK-912); assay type: cell membranes, Sf9, Membrane; conditions: sf9; further: call rule not given here
T1 sequence (P18825 whole entry): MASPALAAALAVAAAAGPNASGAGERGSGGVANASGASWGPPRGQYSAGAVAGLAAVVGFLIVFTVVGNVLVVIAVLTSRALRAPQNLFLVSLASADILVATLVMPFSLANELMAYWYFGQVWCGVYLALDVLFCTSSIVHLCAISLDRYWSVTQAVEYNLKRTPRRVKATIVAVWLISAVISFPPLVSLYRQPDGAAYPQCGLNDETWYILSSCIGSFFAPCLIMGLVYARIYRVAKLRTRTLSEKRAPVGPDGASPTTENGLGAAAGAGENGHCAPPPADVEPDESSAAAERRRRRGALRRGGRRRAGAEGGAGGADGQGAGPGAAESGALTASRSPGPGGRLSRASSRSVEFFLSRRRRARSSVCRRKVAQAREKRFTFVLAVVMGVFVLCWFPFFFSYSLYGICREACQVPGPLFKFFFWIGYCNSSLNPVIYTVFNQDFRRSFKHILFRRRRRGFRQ

[3] = biological target: T2, C-X-C chemokine receptor type 2 (Homo sapiens, UniProt P25025); assay type: cell membranes, Membrane; conditions: cho-k1; further: in other assays of this panel Not Active means under 50% inhibition at 10 µM
T2 sequence (P25025 whole entry): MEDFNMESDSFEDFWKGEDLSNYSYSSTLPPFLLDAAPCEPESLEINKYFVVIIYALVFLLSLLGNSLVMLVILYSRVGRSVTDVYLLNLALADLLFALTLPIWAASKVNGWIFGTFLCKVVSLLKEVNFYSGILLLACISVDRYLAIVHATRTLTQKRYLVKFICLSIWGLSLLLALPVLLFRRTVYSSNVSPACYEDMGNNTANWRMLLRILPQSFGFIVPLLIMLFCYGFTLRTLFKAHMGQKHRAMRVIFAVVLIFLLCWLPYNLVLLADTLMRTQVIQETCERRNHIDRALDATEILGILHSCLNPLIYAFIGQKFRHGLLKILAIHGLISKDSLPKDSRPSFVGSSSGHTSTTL

[4] = biological target: T3, Angiotensin-converting enzyme (Oryctolagus cuniculus, UniProt P12822); assay type: tissue-based, Lung;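 further: enzymatic inhibition of angiotensin-converting enzyme measured with FAPGG as the substrate; in other assays of this panel Not Active means under 50% inhibition at 10 µM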
T3 sequence (P12822 whole entry): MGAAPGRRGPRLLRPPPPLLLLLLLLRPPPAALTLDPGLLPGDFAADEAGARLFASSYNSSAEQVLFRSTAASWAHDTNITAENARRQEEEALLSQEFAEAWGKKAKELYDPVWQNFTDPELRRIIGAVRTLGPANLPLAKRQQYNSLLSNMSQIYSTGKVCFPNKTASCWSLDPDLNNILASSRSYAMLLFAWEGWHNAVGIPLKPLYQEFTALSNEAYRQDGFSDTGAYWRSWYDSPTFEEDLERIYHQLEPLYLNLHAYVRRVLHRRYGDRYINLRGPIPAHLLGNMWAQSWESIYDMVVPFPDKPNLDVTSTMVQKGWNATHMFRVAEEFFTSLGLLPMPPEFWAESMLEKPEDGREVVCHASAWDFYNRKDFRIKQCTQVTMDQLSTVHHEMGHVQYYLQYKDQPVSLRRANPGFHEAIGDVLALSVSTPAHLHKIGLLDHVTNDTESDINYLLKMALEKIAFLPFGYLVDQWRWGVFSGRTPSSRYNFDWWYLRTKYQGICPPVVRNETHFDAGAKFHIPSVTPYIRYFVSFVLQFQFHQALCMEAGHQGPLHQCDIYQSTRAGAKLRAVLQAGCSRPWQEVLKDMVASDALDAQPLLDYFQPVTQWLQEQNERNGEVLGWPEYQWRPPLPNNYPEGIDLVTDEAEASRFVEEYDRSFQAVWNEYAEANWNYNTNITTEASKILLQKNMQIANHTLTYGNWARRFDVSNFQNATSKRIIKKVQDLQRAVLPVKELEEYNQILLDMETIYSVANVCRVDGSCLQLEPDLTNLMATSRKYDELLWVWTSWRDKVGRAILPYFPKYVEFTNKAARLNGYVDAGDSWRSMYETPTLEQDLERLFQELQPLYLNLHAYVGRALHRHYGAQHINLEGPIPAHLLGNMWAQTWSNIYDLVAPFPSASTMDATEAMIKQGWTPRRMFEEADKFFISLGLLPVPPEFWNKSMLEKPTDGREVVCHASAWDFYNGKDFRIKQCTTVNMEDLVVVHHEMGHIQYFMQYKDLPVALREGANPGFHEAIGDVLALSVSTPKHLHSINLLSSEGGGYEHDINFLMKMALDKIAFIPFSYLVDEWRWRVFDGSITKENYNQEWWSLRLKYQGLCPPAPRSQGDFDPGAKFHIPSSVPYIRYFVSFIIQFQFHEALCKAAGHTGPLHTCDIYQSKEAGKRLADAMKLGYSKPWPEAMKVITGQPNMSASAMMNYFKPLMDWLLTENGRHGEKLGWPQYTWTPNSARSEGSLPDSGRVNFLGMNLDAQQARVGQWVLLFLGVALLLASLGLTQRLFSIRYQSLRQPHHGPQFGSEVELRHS

[5] = biological target: T4, Vasoactive intestinal polypeptide receptor 1 (Homo sapiens, UniProt P32241); assay type: cell membranes, Membrane; conditions: ht-29; further: in other assays of this panel Not Active means under 50% inhibition at 10 µM
T4 sequence (P32241 whole entry): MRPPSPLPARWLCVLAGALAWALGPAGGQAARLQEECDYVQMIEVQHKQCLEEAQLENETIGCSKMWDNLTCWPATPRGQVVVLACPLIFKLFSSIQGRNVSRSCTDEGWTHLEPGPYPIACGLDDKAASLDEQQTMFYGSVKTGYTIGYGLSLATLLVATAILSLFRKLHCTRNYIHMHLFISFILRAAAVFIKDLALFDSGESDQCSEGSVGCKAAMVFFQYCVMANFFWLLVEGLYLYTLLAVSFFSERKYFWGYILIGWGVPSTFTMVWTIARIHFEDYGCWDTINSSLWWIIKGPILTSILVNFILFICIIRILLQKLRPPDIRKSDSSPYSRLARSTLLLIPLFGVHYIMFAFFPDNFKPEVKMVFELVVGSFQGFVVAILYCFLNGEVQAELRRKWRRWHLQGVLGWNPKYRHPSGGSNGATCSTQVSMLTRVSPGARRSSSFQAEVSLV

Cannabinoid receptor 1 = Cannabinoid receptor 1 (Homo sapiens, UniProt P21554); assay type: cell membranes, Membrane; conditions: chem-1; further: in other assays of this panel Not Active means under 50% inhibition at 10 µM
Melanocortin receptor 5 = Melanocortin receptor 5 (Homo sapiens, UniProt P33032); assay type: cell membranes, HEK293, Membrane; further: in other assays of this panel Not Active means under 50% inhibition at 10 µM
Melanocortin receptor 5, sequence (P33032 whole entry): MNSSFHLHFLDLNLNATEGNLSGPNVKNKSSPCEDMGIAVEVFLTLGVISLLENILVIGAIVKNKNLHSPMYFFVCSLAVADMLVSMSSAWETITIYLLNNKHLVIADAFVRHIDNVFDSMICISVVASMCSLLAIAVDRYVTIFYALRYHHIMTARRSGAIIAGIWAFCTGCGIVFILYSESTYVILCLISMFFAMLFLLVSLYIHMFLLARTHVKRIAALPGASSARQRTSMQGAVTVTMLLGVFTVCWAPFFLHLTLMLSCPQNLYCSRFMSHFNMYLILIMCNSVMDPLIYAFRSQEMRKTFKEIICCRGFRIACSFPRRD

C-C chemokine receptor type 2, sequence (P41597 whole entry): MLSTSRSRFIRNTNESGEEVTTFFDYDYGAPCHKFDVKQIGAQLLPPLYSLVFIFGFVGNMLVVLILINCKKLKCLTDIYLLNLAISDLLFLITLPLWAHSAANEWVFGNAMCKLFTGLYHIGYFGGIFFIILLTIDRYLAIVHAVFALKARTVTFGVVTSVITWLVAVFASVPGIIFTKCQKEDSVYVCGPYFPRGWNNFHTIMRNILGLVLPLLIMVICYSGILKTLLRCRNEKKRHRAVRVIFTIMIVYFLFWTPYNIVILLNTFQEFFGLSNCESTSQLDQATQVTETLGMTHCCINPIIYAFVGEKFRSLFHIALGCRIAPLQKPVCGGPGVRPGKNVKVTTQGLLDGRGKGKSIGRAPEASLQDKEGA
Cannabinoid receptor 1, sequence (P21554 whole entry): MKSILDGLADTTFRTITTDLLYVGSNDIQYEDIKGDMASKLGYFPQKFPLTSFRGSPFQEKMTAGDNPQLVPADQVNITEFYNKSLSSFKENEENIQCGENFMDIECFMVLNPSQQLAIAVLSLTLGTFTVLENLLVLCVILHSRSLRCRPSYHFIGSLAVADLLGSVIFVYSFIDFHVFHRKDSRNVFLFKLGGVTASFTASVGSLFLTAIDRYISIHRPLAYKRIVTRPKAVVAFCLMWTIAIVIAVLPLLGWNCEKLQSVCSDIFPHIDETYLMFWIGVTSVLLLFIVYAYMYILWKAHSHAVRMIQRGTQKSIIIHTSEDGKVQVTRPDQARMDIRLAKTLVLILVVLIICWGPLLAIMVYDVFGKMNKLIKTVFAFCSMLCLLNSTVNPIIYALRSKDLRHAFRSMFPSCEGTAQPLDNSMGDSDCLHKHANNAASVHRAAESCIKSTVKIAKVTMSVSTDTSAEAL

Structure (SMILES) | IC50 ([1]; cho-k1) | IC50 [2] | IC50 [3] | IC50 [4] | IC50 [5] | IC50 (Cannabinoid receptor 1) | IC50 (Melanocortin receptor 5; hek293) | IC50 ([1]; read-out: IC50) | Ki ([1]; read-out: Ki) | IC50 (Melanocortin receptor 5; read-out: IC50) | Ki (Melanocortin receptor 5; read-out: Ki)
COc1nc(C)nc(Cl)c1NC1=NCCN1 [MOXONIDINE] | Not Active | Not Active | Not Active | Not Active | Not Active | Not Active | Not Active | – | – | – | –
N[C@@H](Cc1ccc(O)c(O)c1)C(=O)O [LEVODOPA] | Not Active | Not Active | Not Active | Not Active | Not Active | Not Active | Not Active | – | – | – | –
OCCN(CCO)c1nc(N2CCCCC2)c2nc(N(CCO)CCO)nc(N3CCCCC3)c2n1 [DIPYRIDAMOLE] | Not Active | Not Active | Not Active | Not Active | Not Active | Not Active | Not Active | – | – | – | –
Cn1ccnc1S [METHIMAZOLE] | Not Active | Not Active | Not Active | Not Active | Not Active | Not Active | Not Active | – | – | – | –
CC(=O)[C@@]1(O)CC[C@H]2[C@@H]3C[C@H](C)C4=CC(=O)CC[C@]4(C)[C@H]3CC[C@@]21C | Not Active | Not Active | Not Active | Not Active | Not Active | Not Active | Not Active | – | – | – | –
C=CCC1(C(C)CCC)C(=O)NC(=O)NC1=O (centres undefined) [SECOBARBITAL] | Not Active | Not Active | Not Active | Not Active | Not Active | Not Active | Not Active | – | – | – | –
C[C@@H]1CN(c2c(F)c(N)c3c(=O)c(C(=O)O)cn(C4CC4)c3c2F)C[C@H](C)N1 [SPARFLOXACIN] | Not Active | Not Active | Not Active | Not Active | Not Active | Not Active | Not Active | – | – | – | –
O=c1ncn2nc(Sc3ccc(F)cc3F)ccc2c1-c1c(Cl)cccc1Cl [NEFLAMAPIMOD] | Not Active | Not Active | Not Active | Not Active | Not Active | Not Active | Not Active | – | – | – | –
Nc1c2c(nc3ccccc13)CCCC2 [TACRINE] | Not Active | Not Active | Not Active | Not Active | Not Active | Not Active | Not Active | – | – | – | –
CO[C@H]1/C=C/O[C@@]2(C)Oc3c(C)c(O)c4c(O)c(c(/C=N/N5CCN(C)CC5)c(O)c4c3C2=O)NC(=O)/C(C)=C\C=C\[C@H](C)[C@H](O)[C@@H](C)[C@@H](O)[C@@H](C)[C@H](OC(C)=O)[C@@H]1C [RIFAMPIN] | Not Active | Not Active | Not Active | Not Active | Not Active | Not Active | Not Active | – | – | – | –
CCCCc1oc2ccccc2c1C(=O)c1cc(I)c(OCCN(CC)CC)c(I)c1 [AMIODARONE] | – | Not Active | Not Active | Not Active | Not Active | Not Active | – | 11.1 µM | 4.28 µM | 9.5 µM | 8.91 µM
CCOC(=O)N1CCC(=C2c3ccc(Cl)cc3CCc3cccnc32)CC1 [LORATADINE] | Not Active | Not Active | Not Active | Not Active | Not Active | Not Active | Not Active | – | – | – | –
N[C@@H](Cc1ccc(N(CCCl)CCCl)cc1)C(=O)O | Not Active | Not Active | Not Active | Not Active | Not Active | Not Active | Not Active | – | – | – | –
Cc1noc(NS(=O)(=O)c2ccc(N)cc2)c1C [SULFISOXAZOLE] | Not Active | Not Active | Not Active | Not Active | Not Active | Not Active | Not Active | – | – | – | –
N[C@@H](Cc1cc(I)c(Oc2ccc(O)c(I)c2)c(I)c1)C(=O)O [LIOTHYRONINE] | Not Active | Not Active | Not Active | Not Active | Not Active | Not Active | Not Active | – | – | – | –
c1ccc([C@H]2CN3CCSC3=N2)cc1 [LEVAMISOLE] | Not Active | Not Active | Not Active | Not Active | Not Active | Not Active | Not Active | – | – | – | –
CC1(C)O[C@@H]2C[C@H]3[C@@H]4CCC5=CC(=O)C=C[C@]5(C)[C@@]4(F)[C@@H](O)C[C@]3(C)[C@]2(C(=O)CO)O1 [TRIAMCINOLONE ACETONIDE] | Not Active | Not Active | Not Active | Not Active | Not Active | Not Active | Not Active | – | – | – | –
N#CC(C#N)=Cc1ccc(O)c(O)c1 [TYRPHOSTIN 23] | Not Active | Not Active | Not Active | Not Active | Not Active | Not Active | Not Active | – | – | – | –
Nc1nc2nc[nH]c2c(=S)[nH]1 [THIOGUANINE] | Not Active | Not Active | Not Active | Not Active | Not Active | Not Active | Not Active | – | – | – | –
NS(=O)(=O)c1cc2c(cc1Cl)NC(C(Cl)Cl)NS2(=O)=O (centres undefined) [TRICHLORMETHIAZIDE] | Not Active | Not Active | Not Active | Not Active | Not Active | Not Active | Not Active | – | – | – | –
CN1CCN(CCCN2c3ccccc3Sc3ccc(Cl)cc32)CC1 [PROCHLORPERAZINE] | Not Active | – | Not Active | Not Active | Not Active | Not Active | Not Active | – | – | – | –
Cc1nc2n(c(=O)c1CCN1CCC(c3noc4cc(F)ccc34)CC1)CCCC2 [RISPERIDONE] | Not Active | – | Not Active | Not Active | Not Active | Not Active | Not Active | – | – | – | –
